Experiment [1] has as its system HSV-2. The experiment is described as follows: Fusion of octadecyl rhodamine B chloride-labeled HSV-2 with NC-37 human B cells. The experiment is classed as cell-based. The protocol:
NC-37 human B cells were inoculated in the presence of 15 mM n-docosanol, the corresponding concentration of Tetronic 908 (0.1 mM) or without addition. Cells were harvested and R-18-labeled HSV-2 was added to aliquots in the presence of compounds at their original concentration. Following incubation at 37° C. for the times indicated, cells were fixed and fluorescence intensity determined by FACScan.
The HSV envelope was labeled with octadecyl rhodamine B chloride (R-18). NC-37 human B cells were inoculated at 2.5×10^5 cells/ml, 25 ml per flask. Cells were incubated overnight at 37° C. with no addition or in the presence of 15 mM n-docosanol or the corresponding concentration of Tetronic 908. […] Fluorescence intensity was measured by using a fluorescence-activated cell sorter (FACScan; Becton-Dickinson).
Because of the selectivity of the inhibitory effects of n-docosanol for lipid-enveloped fusion-dependent viruses and the absence of viricidal effects, we considered the possibility that n-docosanol may inhibit viral entry by altering target cell membranes to prevent effective fusion of viral particles with target cells. To investigate the effects of n-docosanol on HSV fusion with cellular membranes we conducted fluorescence dequenching assays. […] This relieves fluorescence self-quenching and causes an increase in signal intensity.

The subject of another experiment is HSV. The experiment is described as follows: HSV antigens by ELISA, ICP4 immunofluorescence, secondary plaque assay. The experiment is classed as cell-based. An excerpt:
Thus, the amounts of both HSV core and envelope protein antigens detectable by ELISA, as well as the numbers of infected cells expressing the intranuclear HSV-specific immediate-early protein, ICP4, by immunofluorescence, are reduced by more than 80%. Finally, the replication of infectious virions as measured in secondary plaque assay cultures is markedly diminished by 99% or more in n-docosanol treated cells.

Another experiment deals with lipid-enveloped viruses. The experiment is described as follows: Spectrum of antiviral activity against lipid-enveloped viruses in vitro. The experiment is classed as cell-based.
For a further experiment, the system named is HSV-I. The experiment is described as follows: Binding of [3H]HSV-I to Vero cells. The experiment is classed as cell-based. The following applies: virus at 2 p.f.u./cell; n-docosanol 15 mM. An excerpt:
Attachment of HSV-I to specific cell surface receptors is unaffected in n-docosanol-treated cells. Previous studies have verified that attachment of HSV-1 to specific cell surface receptors is unaffected in n-docosanol-treated cells. […] Heparin inhibited this interaction 96%.

Another experiment deals with wild-type HSV-2. The experiment is described as follows: Plaque formation by wild-type HSV-2 in Vero cells. The experiment is classed as cell-based. The settings on record: FIG. 7, Panel A. Here is the method:
(§1) FIG. 7 depicts data showing that n-docosanol inhibits acyclovir-resistant HSV-2. Vero cells were cultured in 35-mm wells (6×10^5 cells per well) in medium alone (=none) or in the presence of the indicated concentration of acyclovir, n-docosanol-Pluronic F-68 suspension or control suspension (Pluronic F-68 only). The cultures were inoculated 24 hours later with 150 PFU of either wild-type HSV-2 or an acyclovir-resistant laboratory isolate from the wild-type HSV-2 that was plaque purified and passaged in 20 μg/ml acyclovir 44 hours later, the plates were incubated, fixed, stained, and scored for numbers of plaques. The data presented are means of plaques scored from duplicate cultures. The percent inhibition observed in cultures treated with acyclovir or n-docosanol relative to untreated control cultures is denoted in parentheses.

The test system of experiment [2] is HSV-2. The experiment is described as follows: HSV-2 internalization into Vero cells (citrate buffer wash). The experiment is classed as cell-based. Here is the method:
FIG. 9 depicts data showing that HSV-2 remains on the surface of n-docosanol treated Vero cells for prolonged times. Vero cells were cultured as described in the legend to FIG. 7 and incubated overnight. The cultures were then chilled to 4° C., inoculated with 100 PFU of HSV-2, and incubated 3 hours at 4° C. At time zero the cultures were washed with medium, inoculated with fresh medium (containing the indicated inhibitor) and incubated at 37° C. At each indicated time period, the cultures were washed with citrate buffer (pH 2.5) and reinoculated with fresh medium (lacking inhibitor). After a total of 44 hours incubation the cultures were stained and scored for HSV-2-induced plaques. The data are expressed as geometric means and standard errors derived from triplicate cultures per group.
In this experiment, HSV-2 was incubated with Vero cells in the absence or presence of n-docosanol at 4° C. to allow for receptor binding of the virus. At the end of 3 hours, all cultures were washed and then replated at 37° C. in order to initiate the viral entry process. At 20 minute intervals thereafter, the various cultures were exposed to pH 3.0 citrate buffer, conditions which remove and inactivate surface-bound, but not internalized, HSV virions, and then re-cultured the full 44 hour period required to develop optimal HSV plaques.

The subject of another experiment is HIV-1. The experiment is described as follows: HIV-1 replication in PHA/IL-2-stimulated peripheral blood mononuclear cells (p24 ELISA). The experiment is classed as cell-based, human. The settings on record: 4 days after inoculation. Here is the method: FIG. 13 depicts data showing that n-docosanol inhibits in vitro replication of HIV-1 in cultures of PHA/IL-2-stimulated human peripheral blood mononuclear cells. Human peripheral blood mononuclear cells were cultured in medium containing 1 μg/ml PHA plus 5 units/ml IL-2 alone or also containing 100 μg/ml PFA, the indicated dosage of n-docosanol/Pluronic F68, or the amount of Pluronic F-68 control vehicle contained in the high dose of n-docosanol/Pluronic F-68. After overnight incubation, the cultures were inoculated with HIV-1 at a multiplicity of infection of 1 virion/cell. After 24 hours incubation at 37° C., the cultures were washed and inoculated with fresh medium containing PHA and IL-2, but lacking inhibitor. Replication of HIV-1 was determined 4 days later by quantitation of viral antigens by a p24-specific ELISA for HIV-1.
The initial studies on HIV were conducted in collaboration with a U.S. National Institutes of Health Laboratory and one of several experiments of this type is summarized in FIG. 13. Normal human peripheral blood mononuclear cells were activated with 1 μg/ml PHA plus 5 units/ml of IL-2 in medium alone or in the presence of n-docosanol, Pluronic […] control vehicle, or phosphonformic acid (PFA). The next day, the cultures were inoculated with HIV-1 and examined 4 days later for evidence of viral replication by detection of the p24 viral antigen.
(An ELISA detects its analyte on a solid surface through an enzyme-linked reagent.)

Experiment [3] concerns acyclovir-resistant HSV-2. The experiment is described as follows: Plaque formation by acyclovir-resistant HSV-2 in Vero cells. The settings on record: FIG. 7, Panel B. The experiment is classed as cell-based. Here is the method:
as §1

Molecules are shown by their SMILES. “Also recorded” adds a separate entry of the source. Read-outs that look alike come from different tables or passages of the source.

One may read the inhibition as the drop in the measured response relative to a control, in per cent. For the molecule `CCCCCCCCCCCCCCCCCCCCCCO` [n-docosanol], in the experiment on HSV-2 [1] (Human alphaherpesvirus 2, NC-37, read-out: inhibition of fluorescent response compared to Tetronic control), the inhibition at 15000 µM was at most 76%. In addition, the inhibition at 15000 µM in the experiment on HSV-2 [1] (Human alphaherpesvirus 2, NC-37, read-out: inhibition of relative increase in fluorescence intensity compared to cells receiving no treatment) was around 50%. In addition, in the experiment on HSV, the “reduction of HSV core and envelope protein antigens detectable by ELISA” value is reported as “more than 80%”; the “reduction of numbers of infected cells expressing ICP4 by immunofluorescence” value is given as “more than 80%”; the “reduction of replication of infectious virions in secondary plaque assay cultures” value is on record as at least 99%. Also, in the experiment on lipid-enveloped viruses, the “HUMAN VIRUSES shown to be susceptible” value is “Respiratory Syncytial Virus; also recorded: Cytomegalovirus; also recorded: Influenza A; also recorded: HIV-1; also recorded: Herpes Simplex-1 & 2; also recorded: Varicella Zoster Virus; also recorded: Human Herpesvirus-6” and the “MURINE VIRUSES shown to be susceptible” value is “Cytomegalovirus; also recorded: Friend Leukemic Virus; also recorded: LP-BM5 Virus”. Moreover, the “inhibition of [3H]HSV-I binding” value in the experiment on HSV-I is recorded as “bound normal levels”. Besides, the “inhibition of plaque formation” value in the experiment with wild-type HSV-2 was “inhibit plaque formation by wild type HSV-2 equally”. In addition, in the experiment on HSV-2 [2], the “time for internalization to reach completion” value is “more than 1 hour”. The “internalization of HSV complete” value in the experiment on HSV-2 [2] (20 minutes after the shift to 37° C.) is listed as “less than 40%”. For the same molecule, the “inhibitory activity against HIV-1 (p24 viral antigen)” value with HIV-1 is listed as “dose-related inhibitory activity; also recorded: comparable to that observed with the very potent antiviral compound, phosphonoformic acid (PFA)”. Moreover, the “inhibition of plaque formation” value in experiment [3] is recorded as “inhibited”.

The values are drawn from patent US20040033982A1, “Viral inhibition by n-docosanol” (priority 2001, published 2004).
